Source: ChEMBL document CHEMBL4020814, “Synthesis, Binding Mode, and Antihyperglycemic Activity of Potent and Selective (5-Imidazol-2-yl-4-phenylpyrimidin-2-yl)[2-(2-pyridylamino)ethyl]amine Inhibitors of Glycogen Synthase Kinase 3” (J Med Chem, 2017)

Experiments:
[1] = Inhibition of human GSK3 using biotin-CREB peptide substrate after 1 hr by scintillation counting method
[2] = Inhibition of GSK3 expressed in CHO-IR cells expressing human insulin receptor assessed as glycogen synthase activation after 30 mins by filter paper assay; format: cell-based, Cavia porcellus

SMILES | IC50 [1] [µM] | EC50 [2] [µM]
CN(C)CCOC(=O)c1cnc(NCCNc2ccc([N+](=O)[O-])cn2)nc1-c1ccc(C#N)cc1 | 0.05 | 3.4
CCOC(=O)c1c(CC)nc(NCCNc2ccc([N+](=O)[O-])cn2)nc1-c1ccc(C(N)=O)cc1 | 0.12 | 9.6
CN1CCN(C)C(CN(CCNc2ccc([N+](=O)[O-])cn2)c2ncc(-n3ccnc3)c(-c3ccc(Cl)cc3Cl)n2)C1 (centres undefined) | 0.121 | 
CN1CCCC1CCN(CCNc1ccc([N+](=O)[O-])cn1)c1ncc(-n2ccnc2)c(-c2ccc(Cl)cc2Cl)n1 (centres undefined) | 0.027 | 0.11
CN(C)CCN(CCNc1ccc([N+](=O)[O-])cn1)c1ncc(-n2ccnc2)c(-c2ccc(Cl)cc2Cl)n1 | 0.035 | 0.35
Cc1nc(-c2cnc(NCCNc3ccc([N+](=O)[O-])c(N)n3)nc2-c2ccc(Cl)cc2Cl)n(C)c1C | 0.022 | 0.32
Nc1nc(NCCNc2ncc(N3CCNCC3=O)c(-c3ccc(Cl)cc3Cl)n2)ccc1[N+](=O)[O-] | 0.015 | 5.41
Cn1ccnc1-c1cnc(NCCNc2ccc([N+](=O)[O-])c(N)n2)nc1-c1ccc(Cl)cc1Cl | 0.001 | 0.25
CC(C)(C)c1c[nH]c(-c2cnc(NCCNc3ccc([N+](=O)[O-])c(N)n3)nc2-c2ccc(Cl)cc2Cl)n1 | 0.027 | 1.07
Nc1nc(NCCNc2ncc(-c3ccccn3)c(-c3ccc(Cl)cc3Cl)n2)ccc1[N+](=O)[O-] | 0.007 | 0.01
N#Cc1ccc(NCCNc2ncc(-n3ccnc3)c(-c3ccc(Cl)cc3Cl)n2)nc1N | 0.056 | 1.01
Nc1nc(NCCNc2ncc(CN3CCOCC3)c(-c3ccc(Cl)cc3Cl)n2)ccc1[N+](=O)[O-] | 0.017 | 0.84
CC(C)c1c[nH]c(-c2cnc(NCCNc3ccc([N+](=O)[O-])c(N)n3)nc2-c2ccc(Cl)cc2Cl)n1 | 0.021 | 0.09
CC(C)[C@H](N)C(=O)Nc1cnc(NCCNc2ccc([N+](=O)[O-])c(N)n2)nc1-c1ccc(Cl)cc1Cl | 0.014 | 0.86
CCOC(=O)C1=C(c2ccncc2)N=C(NCCNc2ccc([N+](=O)[O-])cn2)NC1c1ccc(C(N)=O)cc1 (centres undefined) | 3.7 | 
Cc1cc(NCCNc2ncc(-n3ccnc3)c(-c3ccc(Cl)cc3Cl)n2)nc(N)n1 | > 10 | 
O=[N+]([O-])c1ccc(NCCN(CCN2CCCC2)c2ncc(-n3ccnc3)c(-c3ccc(Cl)cc3Cl)n2)nc1 | 0.026 | 0.37
CCOC(=O)c1c(-c2ccncc2)nc(NCCNc2ccc([N+](=O)[O-])cn2)nc1-c1ccc(C(N)=O)cc1 | 0.14 | 
CCOC(=O)C1=C(c2ccc([N+](=O)[O-])cc2)N=C(NCCNc2ccc([N+](=O)[O-])cn2)NC1c1ccc(C(N)=O)cc1 (centres undefined) | 2 | 
CCOC(=O)C1=C(CC)N=C(NCCNc2ccc([N+](=O)[O-])cn2)NC1c1ccc(C(N)=O)cc1 (centres undefined) | 3.4 | 
N#Cc1ccnc(NCCNc2ncc(-n3ccnc3)c(-c3ccc(Cl)cc3Cl)n2)c1 | 0.2 | 
COCCN(CCNc1ccc([N+](=O)[O-])cn1)c1ncc(-n2ccnc2)c(-c2ccc(Cl)cc2Cl)n1 | 0.175 | 
FC(F)(F)c1ccnc(NCCNc2ncc(-n3ccnc3)c(-c3ccc(Cl)cc3Cl)n2)n1 | 0.381 | 
Clc1ccc(-c2nc(NCCNc3ncccn3)ncc2-n2ccnc2)c(Cl)c1 | > 10 | 

The next lines start with the values.

IC50 [1] [µM] | EC50 [2] [µM] | SMILES
0.033 | > 10 | CNC(=O)c1cnc(NCCNc2ccc([N+](=O)[O-])cn2)nc1-c1ccc(C#N)cc1
0.024 | > 10 | O=[N+]([O-])c1cnc(NCCNc2ncc(-n3ccnc3)c(-c3ccc(Cl)cc3Cl)n2)s1
1 |  | O=[N+]([O-])c1ccc(NCCNc2ncc(-n3ccnc3)c(-c3ccc(Cl)cc3Cl)n2)nc1O
4.87 |  | COc1ccc(OC)c(-c2nc(NCCNc3ccc([N+](=O)[O-])cn3)ncc2-n2ccnc2)c1
0.029 | > 10 | N#Cc1ccc(-c2nc(NCCNc3ccc([N+](=O)[O-])cn3)ncc2C(N)=O)cc1
0.075 |  | N#Cc1ccc(-c2nc(NCCNc3ccc([N+](=O)[O-])cn3)ncc2C(=O)NCc2ccccc2)cc1
2.83 |  | O=[N+]([O-])c1ccc(OCCNc2ncc(-n3ccnc3)c(-c3ccc(Cl)cc3Cl)n2)nc1
1.93 |  | CC(C)(C)OC(=O)N1CCN(c2ccc(-c3nc(NCCNc4ccc([N+](=O)[O-])cn4)ncc3-n3ccnc3)cc2)CC1
0.029 | > 10 | N#Cc1ccc(-c2nc(NCCNc3ccc([N+](=O)[O-])cn3)ncc2C(=O)NCCO)cc1
0.417 | > 10 | N#Cc1ccc(-c2nc(NCCNc3ccc([N+](=O)[O-])cn3)ncc2C(=O)N2CCNCC2)cc1
0.034 | 0.3 | Cc1ccc(-c2nc(NCCNc3ccc([N+](=O)[O-])cn3)ncc2-n2ccnc2)cc1
0.068 | 2.1 | COc1ccc(-c2nc(NCCNc3ccc([N+](=O)[O-])cn3)ncc2-n2ccnc2)cc1
0.033 | 1.5 | Cc1noc(-c2cnc(NCCNc3ccc([N+](=O)[O-])cn3)nc2-c2ccc(C#N)cc2)n1
3.65 |  | CCOC(=O)c1ccc(NCCNc2ncc(-n3ccnc3)c(-c3ccc(Cl)cc3Cl)n2)nc1
5.95 |  | CC(=O)c1ccc(NCCNc2ncc(-n3ccnc3)c(-c3ccc(Cl)cc3Cl)n2)nc1
0.113 |  | O=[N+]([O-])c1ccc(NCCN(CCc2ccccn2)c2ncc(-n3ccnc3)c(-c3ccc(Cl)cc3Cl)n2)nc1
0.153 |  | N#Cc1ccc(-c2nc(NCCNc3ccc([N+](=O)[O-])cn3)ncc2C(=O)NCCN)cc1

IC50 [1] [µM] | EC50 [2] [µM] | SMILES
0.161 |  | N#Cc1ccc(-c2nc(NCCNc3ccc([N+](=O)[O-])cn3)ncc2C(=O)N2CCOCC2)cc1
1.12 |  | CN1CCN(c2ccc(-c3nc(NCCNc4ccc([N+](=O)[O-])cn4)ncc3-n3ccnc3)cc2)CC1
3.37 |  | Cc1cc([N+](=O)[O-])cnc1NCCNc1ncc(-n2ccnc2)c(-c2ccc(Cl)cc2Cl)n1
0.166 |  | O=[N+]([O-])c1ccc(NCCNc2ncc(-n3ccnc3)c(-c3ccc(N4CCNCC4)cc3)n2)nc1
0.884 |  | COc1ccccc1-c1nc(NCCNc2ccc([N+](=O)[O-])cn2)ncc1-n1ccnc1
0.777 |  | O=[N+]([O-])c1ccc(NCCNc2ncc(-n3ccnc3)c(-c3ccc(N4CCCCC4)cc3)n2)nc1
0.025 |  | CC(C)(C)OC(=O)c1cnc(NCCNc2ccc([N+](=O)[O-])cn2)nc1-c1ccc(C#N)cc1
0.047 |  | N#Cc1ccc(-c2nc(NCCNc3ccc([N+](=O)[O-])cn3)ncc2C(=O)NCc2ccncc2)cc1
0.646 |  | O=[N+]([O-])c1ccc(NCCNc2ncc(-n3ccnc3)c(-c3ccc(Cl)c(Cl)c3)n2)nc1
1 |  | CN(C)c1nc(NCCNc2ncc(-n3ccnc3)c(-c3ccc(Cl)cc3Cl)n2)ccc1[N+](=O)[O-]
0.081 |  | COc1nc(NCCNc2ncc(-n3ccnc3)c(-c3ccc(Cl)cc3Cl)n2)ccc1[N+](=O)[O-]
0.576 |  | CNc1nc(NCCNc2ncc(-n3ccnc3)c(-c3ccc(Cl)cc3Cl)n2)ccc1[N+](=O)[O-]
0.124 |  | O=[N+]([O-])c1ccc(NCCNc2ncc(-n3ccnc3)c(-c3ccc(-n4ccnc4)cc3)n2)nc1
0.19 |  | N#Cc1ccc(-c2nc(NCCNc3ccc([N+](=O)[O-])cn3)ncc2C(=O)OCc2ccccc2)cc1
0.347 |  | COc1cccc(-c2nc(NCCNc3ccc([N+](=O)[O-])cn3)ncc2-n2ccnc2)c1
0.2 |  | O=[N+]([O-])c1ccc(NCCNc2ncc(-n3ccnc3)c(-c3ccc(F)cc3)n2)nc1
